Holding throughout (type): physicochemical
The nature of data set [1]: Solubility Evaluation 1: solubility of host compounds in toluene. The settings on record: host compounds. The procedure:
Solubility Evaluation 1 was conducted by the following method.
A hundred mg of each compound was placed in a sample pot and the toluene as the solvent was added until the compound was dissolved. The solubility in the toluene was obtained from an amount of the added toluene.

Data set [2] in a line: Ink solubility, insoluble matter visually observed. The settings on record: H10: ink of Example 28 with Compound H10 instead of H4. Here is the method: (§1) Specifically, samples of a host compound and a dopant compound were blended in a weight ratio of 20:1 in a sample pot, to which a solvent and a viscosity control agent were added.
(§2) Table 5 and Table 6 each show a type of solvent, solid content (wt %), solubility (o: no insoluble matter visually observed, x: insoluble matter visually observed), viscosity and a solution condition after a week.

Data set [3] in a line: Ink solution condition after a week (pot life). The settings on record: H10: ink of Example 28 with Compound H10 instead of H4. The procedure:
as §1, §2

In data set [1], `c1ccc(-c2ccccc2-c2ccc3c(-c4ccccc4)c4ccccc4c(-c4ccccc4)c3c2)cc1` [Compound H10] returned a solubility in toluene of 5 wt %. In addition, in data set [2], the “insoluble matter in the ink (in words)” value is “no solid matters left undissolved”. Moreover, the “precipitation within a week / pot life (in words)” value in data set [3] is listed as “precipitation was not observed after a week”.

Values taken from patent US20080113101A1, “ORGANIC-ELECTROLUMINESCENCE-MATERIAL-CONTAINING SOLUTION, METHOD FOR FORMING THIN FILM OF ORGANIC ELECTROLUMINESCENCE MATERIAL, THIN FILM OF ORGANIC ELECTROLUMINESCENCE MATERIAL AND ORGANIC ELECTROLUMINESCENCE DEVICE” (Idemitsu Kosan Co., Ltd., priority 2006, published 2008).
